Results taken from patent US5827895A, “Hexahydrolupulones useful as anticancer agents” (Regents of the University of Minnesota, priority 1996, dated 1998).

Assays:
Experiment in all cases: microbe, parasite or virus in culture
Type in all cases: cell-based, M. tuberculosis
[1] = test system: Isoniazid Resistant TB; conditions: Mycobacterium tuberculosis, read-out: inhibition of Isoniazid Resistant TB growth
[2] = test system: Isoniazid and Rifampin Resistant TB; conditions: Mycobacterium tuberculosis, read-out: inhibition of Isoniazid and Rifampin Resistant TB
[3] = test system: Pyrazinamide Resistant TB; conditions: Mycobacterium tuberculosis, read-out: inhibition of Pyrazinamide Resistant TB growth

SMILES: CC(C)CCC1=C(O)C(C(=O)C(C)C)=C(O)C(CCC(C)C)(CCC(C)C)C1=O [HHC, hexahydrocolupulone]
- inhibition at 75 µM [1]: 91%
- inhibition at 75 µM [2]: 92%
- inhibition at 75 µM [3]: 98%
